Experimental data taken from article doi:10.1101/2023.02.06.527370, “A remarkable transformation catalyzed by a domain-of-unknown-function 692 during the biosynthesis of a new RiPP natural product” (bioRxiv, 2023).

Target: T1, ChrHI (ChrH with ChrI) (Chryseobacterium sp. JM1, UniProt A0A086ASD2)
T1 construct: gene IW22_14845
Experiment: MALDI-TOF MS of in vitro reaction products after LysC digestion
Format: biochemical
Settings: precursor peptide ChrA as co-substrate, DTT, aerobic, iron-containing enzyme; methyl donor; also run with 13CD3-SAM (labelled compound)

T1 sequence (A0A086ASD2 entry or part of it): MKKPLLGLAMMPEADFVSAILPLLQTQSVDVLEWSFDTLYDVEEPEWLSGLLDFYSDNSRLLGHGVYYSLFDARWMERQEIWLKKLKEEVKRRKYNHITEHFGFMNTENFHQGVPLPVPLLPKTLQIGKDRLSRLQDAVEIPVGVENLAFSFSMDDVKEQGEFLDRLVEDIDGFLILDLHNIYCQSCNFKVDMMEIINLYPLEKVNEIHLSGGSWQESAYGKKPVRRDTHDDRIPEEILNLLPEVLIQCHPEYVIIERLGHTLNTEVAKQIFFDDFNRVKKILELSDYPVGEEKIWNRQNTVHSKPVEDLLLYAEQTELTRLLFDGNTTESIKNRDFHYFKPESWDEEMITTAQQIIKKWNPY

SMILES: C[S+](CC[C@H](N)C(=O)O)C[C@H]1O[C@@H](n2cnc3c(N)ncnc32)[C@H](O)[C@@H]1O (stereo partly shown) [SAM, S-adenosylmethionine]
- MALDI-TOF MS of in vitro reaction products after LysC digestion: SAM is the methyl donor in the posttranslational modification of ChrA by ChrHI
